From patent US20260355196A1, “INHIBITORS AND DEGRADERS OF PIP4K PROTEIN” (Larkspur Biosciences, Inc., priority 2023, published 2026) come the findings set out here.

For the experiment, the target named is T1, PIP4K2C (Homo sapiens, UniProt Q8TBX8).
T1 sequence (Q8TBX8 1-421): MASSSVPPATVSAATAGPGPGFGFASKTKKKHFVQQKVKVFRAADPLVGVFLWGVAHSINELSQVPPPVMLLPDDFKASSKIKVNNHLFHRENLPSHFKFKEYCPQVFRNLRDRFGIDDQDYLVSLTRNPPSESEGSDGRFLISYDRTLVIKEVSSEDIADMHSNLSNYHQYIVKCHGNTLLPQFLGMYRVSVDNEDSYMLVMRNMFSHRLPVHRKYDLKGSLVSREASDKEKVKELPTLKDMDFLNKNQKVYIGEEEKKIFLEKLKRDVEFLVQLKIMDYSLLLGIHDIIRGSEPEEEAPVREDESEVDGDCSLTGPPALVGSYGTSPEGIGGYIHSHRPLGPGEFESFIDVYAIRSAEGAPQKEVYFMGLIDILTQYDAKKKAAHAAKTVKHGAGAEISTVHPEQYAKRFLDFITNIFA
Put plainly: HiBiT PIP4K2C degradation assay in MOLT-4 cells (endogenous PIP4K2C C-terminally tagged with HiBiT). The format is cell-based. Details: untagged in primary human PBMCs and monocyte-derived dendritic cells. To be noted: 6 hours of incubation time, rather than 24 hours; MOLT-4, top concentration 10 micromolar; read-out: HiBIT-degradation MOLT4 PIP4k2C DC50 (6 hours, marked *). In outline:
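Luminescent HiBiT lytic readout of residual PIP4K2C-HiBiT (CRISPR knock-in, MOLT-4, phenol red-free RPMI-1640 + 10% FBS). Cells exposed 6 or 24 h at 37 C to compound, top 10 micromolar, 3-fold, 10 points, duplicate. Hill fit (Levenberg-Marquardt) gives DC50.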
Turning to `O=C1CCC(Nc2ccc(N3CCN(C4CC5(C4)CN(C(=O)O[C@H]4CC[C@H](Nc6ncc(F)c(-c7cccc(-n8ccccc8=O)c7)n6)CC4)C5)CC3)c(F)c2)C(=O)N1` (stereo partly drawn) [Compound 681, trans-4-((5-fluoro-4-(3-(2-oxopyridin-1 (2H)-yl)phenyl)pyrimidin-2-yl)amino)cyclohexyl 6-(4-(4-((2,6-dioxopiperidin-3-yl)amino)-2-fluorophenyl)piperazin-1-yl)-2-azaspiro[3.3]heptane-2-carboxylate], the DC50 is under 500 nM. In the case of `O=C1CCC(Nc2ccc(C3CCN(CC4CCC(C(=O)N5CCC(Nc6ncc(F)c(-c7cccc(N8CCCCC8)c7)n6)CC5)CC4)CC3)c(F)c2)C(=O)N1` (stereo not drawn) [Compound 682, trans-3-((3-fluoro-4-(1-((4-(4-((5-fluoro-4-(3-(piperidin-1-yl)phenyl)pyrimidin-2-yl)amino)piperidine-1-carbonyl)cyclohexyl)methyl)piperidin-4-yl)phenyl)amino)piperidine-2,6-dione] it was under 500 nM; in that of `O=C1CCC(Nc2ccc(C3CCN(C[C@H]4CC[C@H](C(=O)N5CCC(Nc6ncc(F)c(-c7cccc(N8CCOCC8=O)c7)n6)CC5)CC4)CC3)c(F)c2)C(=O)N1` (stereo partly drawn) [Compound 683, 3-((3-fluoro-4-(1-(((trans)-4-(4-((5-fluoro-4-(3-(3-oxomorpholino)phenyl)pyrimidin-2-yl)amino)piperidine-1-carbonyl)cyclohexyl)methyl)piperidin-4-yl)phenyl)amino)piperidine-2,6-dione], over 5000 nM. As for `O=C1CCC(Nc2ccc(C3CCN(C[C@H]4CC[C@H](C(=O)N5CCC(Nc6ncc(F)c(-c7cccc(N8CCCOC8=O)c7)n6)CC5)CC4)CC3)c(F)c2)C(=O)N1` (stereo partly drawn) [Compound 684, trans-3-((3-fluoro-4-(1-((4-(4-((5-fluoro-4-(3-(2-oxo-1,3-oxazinan-3-yl)phenyl)pyrimidin-2-yl)amino)piperidine-1-carbonyl)cyclohexyl)methyl)piperidin-4-yl)phenyl)amino)piperidine-2,6-dione], the figure is under 500 nM; as for `O=C1CCC(Nc2ccc(C3CCN(C[C@H]4CC[C@H](C(=O)N5CCC(Nc6ncc(F)c(-c7cccc(N8CCCCC8=O)c7)n6)CC5)CC4)CC3)c(F)c2)C(=O)N1` (stereo partly drawn) [Compound 685, 3-((3-fluoro-4-(1-((trans-4-(4-((5-fluoro-4-(3-(2-oxopiperidin-1-yl)phenyl)pyrimidin-2-yl)amino)piperidine-1-carbonyl)cyclohexyl)methyl)piperidin-4-yl)phenyl)amino)piperidine-2,6-dione], under 500 nM. As for `O=C1CCC(Nc2ccc(N3CCN(CC4CCN(C(=O)[C@H]5CC[C@H](Nc6ncc(F)c(-c7cccc(N8CCOCC8)c7)n6)CC5)CC4)CC3)c(F)c2)C(=O)N1` (stereo partly drawn) [Compound 686, trans-3-((3-fluoro-4-(4-((1-(4-((5-fluoro-4-(3-morpholinophenyl)pyrimidin-2-yl)amino)cyclohexane-1-carbonyl)piperidin-4-yl)methyl)piperazin-1-yl)phenyl)amino)piperidine-2,6-dione], the figure is under 500 nM; as for `O=C1CCC(Nc2ccc(N3CCN(C4CCN(C(=O)O[C@H]5CC[C@H](Nc6ncc(F)c(-c7cccc(N8CCCCC8)c7)n6)CC5)CC4)CC3)c(F)c2)C(=O)N1` (stereo partly drawn) [Compound 687, trans-4-((5-fluoro-4-(3-(piperidin-1-yl)phenyl)pyrimidin-2-yl)amino)cyclohexyl 4-(4-(4-((2,6-dioxopiperidin-3-yl)amino)-2-fluorophenyl)piperazin-1-yl)piperidine-1-carboxylate], under 500 nM; as for `O=C1CCC(Nc2ccc(N3CCN(C4CCN(C(=O)O[C@H]5CC[C@H](Nc6ncc(F)c(-c7cccc(N8CCOCC8=O)c7)n6)CC5)CC4)CC3)c(F)c2)C(=O)N1` (stereo partly drawn) [Compound 688, trans-4-((5-fluoro-4-(3-(3-oxomorpholino)phenyl)pyrimidin-2-yl)amino)cyclohexyl 4-(4-(4-((2,6-dioxopiperidin-3-yl)amino)-2-fluorophenyl)piperazin-1-yl)piperidine-1-carboxylate], under 500 nM.

Broadly, the DC50 is the midpoint of the concentration-degradation curve.
